The source of these data is paper PMC9393241, “Design, Synthesis, and Activity Assays of Cyclin-Dependent Kinase 1 Inhibitors With Flavone Scaffolds” (Frontiers in Chemistry, 2022).

For one data set, the system named is RAW264.7 cells. Description: Cell growth inhibition assay (CCK-8), RAW264.7. As to conditions: Mus musculus, 24 h. It counts as cell-based. The protocol:
(§1) All test compounds and controls were dissolved in DMSO to prepare 250 μM stock solutions. The stock solutions were filtered through a […] and diluted into five concentrations (0.1–250 μM) with DMEM medium. MCF-7 and RAW264.7 cells were inoculated at a concentration of 5,000 cells/100 μl/well into a 96-well plate for 24 h at 37°C in a humidified atmosphere containing 5% CO2. After 24 h of culture, the primary medium was discarded and replaced with 100 μl of fresh DMEM medium containing different concentrations of test compounds in triplicate. After another 24 h of culture, the medium was replaced with 100 μl of fresh DMEM medium containing 10% (v/v) CCK-8 reagent in each well for 2 h at 37°C. The OD value was measured at a wavelength of 450 nm. Cell viability was determined using the following equation: Cell viability=(ODsample-ODnegative control/ODpositive control-ODnegative control)×100% where OD positive control is the absorbance at 450 nm obtained from untreated cells. OD negative control is the absorbance obtained from a blank well containing the cell culture medium and CCK-8 reagent. The IC50 values were calculated from the plot of activity vs. inhibitor concentration by using the GraphPad Prism 5 software ([Yu et al., 2020]).

The next data set concerns the target T1, CDK1/cyclin B1 (Homo sapiens, UniProt P06493).
T1 construct: purchased
The data set can be described thus: In vitro anti-CDK1/cyclin B1 kinase assay (Kinase-Glo luminescence). To be noted: for Selectivity: CDK1 compared with CDK4 (CDK4 IC50 / CDK1 IC50); for inhibition at 20 µM: test compounds at 20 μM, read-out: Inhibition rates (%) CDK1. Type of data set: biochemical. On the procedure: (§2) In vitro anti-CDK1/cyclin B1 and CDK4/cyclin D3 assays were performed as described by the manufacturer. All test compounds and controls were dissolved in dimethyl sulfoxide (DMSO) to prepare 50 μM stock solutions. The stock solutions were diluted by double-distilled water and buffer to 40, 30, 20, and 10 μM working concentrations and stored at −20°C. Buffer, ATP, CDK substrate […], and distilled water were mixed, and then 25 μl of the mixture was added to a 96-well plate. Five microliters of 20 μM test compounds were sequentially added. CDK1/cyclin B1 was diluted to 1 ng/μl, and CDK4/cyclin D3 was diluted to 10 ng/μl using a buffer. Twenty microliters of the kinase solutions were incubated with the test compounds at 30°C for 45 min for CDK1/cyclin B1 and for 60 min for CDK4/cyclin D3. Finally, 50 μl of Kinase-Glo Max reagent was added to each well. The 96-well plate was covered with aluminum foil and incubated at room temperature for 15 min. Luminescence of the test compounds was measured with a microplate reader.
Background: Kinase-Glo measures the ATP left after a reaction by luminescence.

The next data set concerns MCF-7 cells. Description: Cell growth inhibition assay (CCK-8), MCF-7. Type of data set: cell-based. To be noted: Homo sapiens, MCF7, 24 h. On the procedure: as §1
In a further data set the target is T2, CDK4/cyclin D3 (Homo sapiens, UniProt P11802).
T2 construct: purchased
T2 sequence (P11802 whole entry): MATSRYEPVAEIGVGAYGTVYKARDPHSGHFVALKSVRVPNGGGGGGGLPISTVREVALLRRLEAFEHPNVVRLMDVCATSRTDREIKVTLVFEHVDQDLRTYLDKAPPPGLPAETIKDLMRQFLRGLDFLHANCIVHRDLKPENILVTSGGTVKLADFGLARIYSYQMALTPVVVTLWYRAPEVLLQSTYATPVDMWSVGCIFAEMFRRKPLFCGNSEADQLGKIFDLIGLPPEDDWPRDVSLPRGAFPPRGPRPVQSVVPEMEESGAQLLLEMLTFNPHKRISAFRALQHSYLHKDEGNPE
T2 sequence (P30281 whole entry partner): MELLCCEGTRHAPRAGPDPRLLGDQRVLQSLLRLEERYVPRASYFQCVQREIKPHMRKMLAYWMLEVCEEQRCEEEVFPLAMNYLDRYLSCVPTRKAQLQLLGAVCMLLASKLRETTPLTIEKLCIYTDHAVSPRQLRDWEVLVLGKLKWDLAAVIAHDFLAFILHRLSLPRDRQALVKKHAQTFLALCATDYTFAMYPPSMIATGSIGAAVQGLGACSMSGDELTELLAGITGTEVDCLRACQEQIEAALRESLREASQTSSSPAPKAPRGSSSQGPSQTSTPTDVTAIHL
The data set can be described thus: In vitro anti-CDK4/cyclin D3 kinase assay (Kinase-Glo luminescence). It counts as biochemical. As to conditions: for inhibition at 20 µM: test compounds at 20 μM, read-out: Inhibition rates (%) CDK4. The protocol:
as §2

The subject of another data set is MCF-7 tumor cell. Also on record: method as in Mou et al., 2021a. To be noted: concentration of 50 μg/ml; ref Mou et al., 2021a; cited from earlier work.
Another data set has as its target CDK1/cyclin B kinase. Also on record: method as in Mou et al., 2021a. As to conditions: ref Mou et al., 2021a; read-out: IC50 against CDK1/cyclin B kinase; cited from earlier work.

T1 sequence (P06493 whole entry): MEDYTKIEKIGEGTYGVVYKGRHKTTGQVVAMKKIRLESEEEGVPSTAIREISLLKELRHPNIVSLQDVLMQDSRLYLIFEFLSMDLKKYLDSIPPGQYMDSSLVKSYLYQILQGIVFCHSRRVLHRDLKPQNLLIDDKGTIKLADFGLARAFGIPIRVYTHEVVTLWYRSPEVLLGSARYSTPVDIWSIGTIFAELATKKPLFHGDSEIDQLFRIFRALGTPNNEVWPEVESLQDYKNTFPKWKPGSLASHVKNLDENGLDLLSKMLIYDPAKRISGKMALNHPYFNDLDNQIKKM
T1 sequence (P14635 whole entry partner): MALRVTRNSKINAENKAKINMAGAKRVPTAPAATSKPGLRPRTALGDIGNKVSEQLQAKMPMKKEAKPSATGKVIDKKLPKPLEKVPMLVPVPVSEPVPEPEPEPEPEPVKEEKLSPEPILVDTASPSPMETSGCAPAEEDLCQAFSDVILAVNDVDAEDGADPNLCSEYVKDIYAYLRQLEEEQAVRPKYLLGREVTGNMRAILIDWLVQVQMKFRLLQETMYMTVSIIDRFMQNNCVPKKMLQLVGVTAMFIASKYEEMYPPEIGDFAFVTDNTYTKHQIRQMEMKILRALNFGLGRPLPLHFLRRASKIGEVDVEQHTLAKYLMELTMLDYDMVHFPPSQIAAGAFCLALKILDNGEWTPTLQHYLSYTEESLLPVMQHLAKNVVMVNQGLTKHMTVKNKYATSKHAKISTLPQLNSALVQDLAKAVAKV

As to `O=c1cc(-c2ccccc2)oc2c(CN3CCOCC3)c(O)c(CN3CCOCC3)c(O)c12` [Compound 5c, 5,7-Dihydroxy-6,8-bis(morpholinomethyl)-2-phenyl-4H-chromen-4-one], the melting point (as a rule, the temperature, or range, at which the solid turns liquid) was 199.2 to 199.6 °C. Also, the IC50 in the data set with RAW264.7 cells came out at 59.4 ± 1.23 µM. For the same compound, at CDK1/cyclin B1, the IC50 was determined as 39.6 ± 1.43 µM; the Selectivity turned out to be 12.85; the inhibition (commonly the drop in the measured response relative to a control, in per cent) at 20 µM is 38.34 ± 0.08%. This compound also had an IC50 in the data set on MCF-7 cells of 76.9 ± 1.47 µM. At CDK4/cyclin D3, the IC50 was found to be 508 ± 5.56 µM and the inhibition at 20 µM amounted to 8.15 ± 0.06%.
As to `COc1ccc(-c2cc(=O)c3c(O)cc(OCCBr)cc3o2)cc1` [Compound 12c, 7-(2-Bromoethoxy)-5-hydroxy-2-(4-methoxyphenyl)-4H-chromen-4-one], the melting point is 175.2 to 175.7 °C. This compound also came in with an IC50 in the data set with RAW264.7 cells of 68.4 ± 0.99 µM. At CDK1/cyclin B1, the IC50 worked out at 43.6 ± 1.53 µM and the inhibition at 20 µM amounted to 37.6 ± 0.12%. The same compound returned an IC50 with MCF-7 cells of 131 ± 2.35 µM. The inhibition at 20 µM on CDK4/cyclin D3 was determined as 1.43 ± 0.06%.
With `CN1CC[C@H](c2c(O)cc(O)c3c(=O)cc(-c4ccccc4Cl)oc23)[C@H](O)C1` [flavopiridol, reference compound], the IC50 in the data set with RAW264.7 cells was 0.55 ± 0.05 µM; in the data set with MCF-7 cells, 294 ± 3.13 µM. The “inhibition rate against MCF-7 tumor cell proliferation” value (“inhibition rate” below) in the data set on MCF-7 tumor cell was 90.0%. Further, the inhibition at 20 µM at CDK1/cyclin B1 was 86.79 ± 0.04%; at CDK4/cyclin D3 it was 89.71 ± 0.03%.
For the compound `O=c1cc(-c2ccccc2)oc2c(CN3CCOCC3)c3c(c(O)c12)OCCCCO3` [Compound 2a, 12-Hydroxy-7-(morpholinomethyl)-9-phenyl-2,3,4,5-tetrahydro-[1,4]dioxocino[2,3-g]chromen-11-one], the melting point is 213.8 to 214.3 °C. Besides, the IC50 in the data set with RAW264.7 cells stood at 2.54 ± 0.12 µM. The “inhibition rate” value in the data set on MCF-7 tumor cell is on record as 96.7%. Besides, at CDK1/cyclin B1, the IC50 is 36.4 ± 1.12 µM and the inhibition at 20 µM was found to be 33.05 ± 0.12%. Further, in the data set with MCF-7 cells, the IC50 stood at 79.7 ± 1.81 µM.
On to `O=c1cc(-c2ccccc2)oc2c(CN3CCOCC3)c(O)cc(O)c12` [Compound 6b, 5,7-Dihydroxy-8-(morpholinomethyl)-2-phenyl-4H-chromen-4-one], for which the melting point lay in the range of 217.6 to 219.5 °C. On CDK1/cyclin B1, the inhibition at 20 µM was determined as 34.47 ± 0.12%. At CDK4/cyclin D3, the inhibition at 20 µM was 9.36 ± 0.09%.
As for `C=C(C)C(=O)Oc1c(O)c(O)c2c(=O)cc(-c3ccccc3)oc2c1CN1CCN(C)CC1` [pro3o], the IC50 at CDK1/cyclin B kinase was 1.26 µM.
Turning to `CCCN(CCC)Cc1c(OCCCCBr)c(O)c(O)c2c(=O)cc(-c3ccccc3)oc12` [Compound 3b, 7-(4-Bromobutoxy)-8-((dipropylamino)methyl)-5,6-dihydroxy-2-phenyl-4H-chromen-4-one], the melting point lay within 216.2 to 221.8 °C. The inhibition at 20 µM on CDK1/cyclin B1 is 25.33 ± 0.11%. Also, on CDK4/cyclin D3, the inhibition at 20 µM amounted to 6.01 ± 0.07%.
The compound `COc1ccc(-c2cc(=O)c3c(O)c(CN4CCN(C)CC4)c(O)c(CN4CCN(C)CC4)c3o2)cc1` [Compound 10c, 5,7-Dihydroxy-2-(4-methoxyphenyl)-6,8-bis((4-methylpiperazin-1-yl)methyl)-4H-chromen-4-one] returned a melting point of 161.8 to 161.9 °C. Moreover, the inhibition at 20 µM on CDK1/cyclin B1 is 27.7 ± 0.12%. The inhibition at 20 µM on CDK4/cyclin D3 came out at 8.57 ± 0.09%.
`CCn1cnc2c(Nc3cccc(Cl)c3)nc(NC3CCCCC3N)nc21` (centres unmarked) [CGP74514 A, reference compound]: the “inhibition rate” value in the data set with MCF-7 tumor cell is on record as 96.7%. In addition, on CDK1/cyclin B1, the IC50 worked out at 10.9 ± 0.89 µM, the Selectivity was determined as 3.28 and the inhibition at 20 µM is 62.5 ± 0.05%. Besides, at CDK4/cyclin D3, the IC50 is 35.6 ± 1.02 µM and the inhibition at 20 µM was determined as 48.52 ± 0.04%.
In the case of `CN(C)Cc1c(O)cc(O)c2c(=O)cc(-c3ccccc3)oc12` [Compound 6d, 8-((Dimethylamino)methyl)-5,7-dihydroxy-2-phenyl-4H-chromen-4-one], the melting point was 241.9 to 242.3 °C. In addition, the inhibition at 20 µM on CDK1/cyclin B1 came to 31.24 ± 0.08%. Also, the inhibition at 20 µM on CDK4/cyclin D3 came to 7.46 ± 0.06%.
On to `O=c1cc(-c2ccccc2)oc2cc(OCCCCBr)cc(O)c12` [Compound 7d, 7-(4-Bromobutoxy)-5-hydroxy-2-phenyl-4H-chromen-4-one], for which the melting point was in the range of 162.6 to 163.6 °C. Moreover, the inhibition at 20 µM on CDK1/cyclin B1 was determined as 19.74 ± 0.11%. For the same compound, the inhibition at 20 µM on CDK4/cyclin D3 was 1.83 ± 0.06%.
`O=c1cc(-c2ccccc2)oc2c(CN3CCCC3)c(O)c(CN3CCCC3)c(O)c12` [Compound 5a, 5,7-Dihydroxy-2-phenyl-6,8-bis(pyrrolidin-1-ylmethyl)-4H-chromen-4-one] returned a melting point of 194.9 to 196.6 °C. In addition, at CDK1/cyclin B1, the inhibition at 20 µM was determined as 29 ± 0.12%. Further, the inhibition at 20 µM at CDK4/cyclin D3 amounted to 7.22 ± 0.08%.
With `COc1ccc(-c2cc(=O)c3c(O)cc(OCc4ccccc4)cc3o2)cc1` [Compound 12a, 7-(Benzyloxy)-5-hydroxy-2-(4-methoxyphenyl)-4H-chromen-4-one], the melting point is 181.6 to 182.7 °C. Moreover, the inhibition at 20 µM at CDK1/cyclin B1 was 32.38 ± 0.11%. In addition, the inhibition at 20 µM at CDK4/cyclin D3 stood at 6 ± 0.04%.
